Assay results reported in patent US11285156B2, “Substituted piperazines as KRAS G12C inhibitors” (Amgen Inc., priority 2018, dated 2022).

target: GDP-bound KRAS protein (aa 1-169), containing both G12C and C118A amino acid substitutions (Homo sapiens (Human), UniProt P01116, C118A/G12C); test: Coupled nucleotide exchange assay (SOS-mediated nucleotide exchange, AlphaScreen); format: biochemical; settings: 5 min compound pre-incubation
Sequence (P01116 other isoform, or with tags, fused parts or gaps G12C/C118A): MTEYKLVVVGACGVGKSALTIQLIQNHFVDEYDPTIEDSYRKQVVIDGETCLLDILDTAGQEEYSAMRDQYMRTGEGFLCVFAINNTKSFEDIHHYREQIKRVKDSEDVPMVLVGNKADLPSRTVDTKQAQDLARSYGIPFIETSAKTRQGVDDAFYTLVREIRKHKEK

Coupled exchange IC50 (5 min; μM) [µM] | SMILES
0.408 | [2H]C1([2H])N(C(=O)C=C)C([2H])([2H])C([2H])([2H])N(c2nc(=O)n(-c3c(C)ccnc3C(C)C)c3nc(-c4c(O)cccc4F)c(F)cc23)C1([2H])[2H] (atropisomer, axis not shown; (M)) [Example 72-22, (M)-6-Fluoro-7-(2-fluoro-6-hydroxy-phenyl)-1-(2-isopropyl-4-methyl-3-pyridyl)-4-(2,2,3,3,5,5,6,6-octadeuterio-4-prop-2-enoyl-piperazin-1-yl)pyrido[2,3-d]pyrimidin-2-one]

same assay, conditions: read-out: Coupled exchange IC50 (5 min; μM); 5 min compound pre-incubation

SMILES | IC50 [µM]
C=CC(=O)N1C[C@H](C)N(c2nc(=O)n(-c3c(C)ccnc3C(C)C)c3nc(N4CCCC4C(F)F)c(Cl)cc23)C[C@H]1C (atropisomer, axis not shown; (M)) [Example 69-10, (M)-6-Chloro-7-[2-(difluoromethyl)pyrrolidin-1-yl]-4-[(2S,5R)-2,5-dimethyl-4-prop-2-enoyl-piperazin-1-yl]-1-(2-isopropyl-4-methyl-3-pyridyl)pyrido[2,3-d]pyrimidin-2-one] | 11
C=CC(=O)N1C[C@H](C)N(c2nc(=O)n(-c3c(C)ccnc3C(C)C)c3nc(N4CCCCC4)c(Cl)cc23)C[C@H]1C (atropisomer, axis not shown; (M)) [Example 69-11, (M)-6-Chloro-4-[(2S,5R)-2,5-dimethyl-4-prop-2-enoyl-piperazin-1-yl]-1-(2-isopropyl-4-methyl-3-pyridyl)-7-(1-piperidyl)pyrido[2,3-d]pyrimidin-2-one] | 1.14
C=CC(=O)N1C[C@H](C)N(c2nc(=O)n(-c3c(C)ccnc3C(C)C)c3nc(-c4ccccc4P(C)(C)=O)c(F)cc23)C[C@H]1C (atropisomer, axis not shown; (M)) [Example 72-23, (M)-7-(2-Dimethylphosphorylphenyl)-4-[(2S,5R)-2,5-dimethyl-4-prop-2-enoyl-piperazin-1-yl]-6-fluoro-1-(2-isopropyl-4-methyl-3-pyridyl)pyrido[2,3-d]pyrimidin-2-one] | 0.647
C=CC(=O)N1[C@@H]2CC[C@H]1CN(c1nc(=O)n(-c3c(C)ccnc3C(C)C)c3nc(-c4ccccc4F)c(Cl)cc13)C2 (atropisomer, axis not shown; (M)) [Example 79-10, (M)-6-Chloro-7-(2-fluorophenyl)-1-(2-isopropyl-4-methyl-3-pyridyl)-4-[(1S,5R)-8-prop-2-enoyl-3,8-diazabicyclo[3.2.1]octan-3-yl]pyrido[2,3-d]pyrimidin-2-one] | 2.78
C=CC(=O)N1C[C@@H]2CC[C@H]1CN2c1nc(=O)n(-c2c(C)ccnc2C(C)C)c2nc(-c3ccccc3F)c(Cl)cc12 (atropisomer, axis not shown; (M)) [Example 79-11, (M)-6-Chloro-7-(2-fluorophenyl)-1-(2-isopropyl-4-methyl-3-pyridyl)-4-[(1S,4S)-5-prop-2-enoyl-2,5-diazabicyclo[2.2.2]octan-2-yl]pyrido[2,3-d]pyrimidin-2-one] | 26.7
C=CC(=O)N1C[C@H]2CCC[C@@H](C1)N2c1nc(=O)n(-c2c(C)ccnc2C(C)C)c2nc(-c3ccccc3F)c(Cl)cc12 (atropisomer, axis not shown; (M)) [Example 79-12, (M)-6-Chloro-7-(2-fluorophenyl)-1-(2-isopropyl-4-methyl-3-pyridyl)-4-[(1S,5R)-3-prop-2-enoyl-3,9-diazabicyclo[3.3.1]nonan-9-yl]pyrido[2,3-d]pyrimidin-2-one] | 5.46
C=CC(=O)N1C[C@H](C)N(c2nc(=O)n(-c3c(C)ccnc3C(C)C)c3nc(C=C(C)C)c(Cl)cc23)C[C@H]1C (atropisomer, axis not shown; (M)) [Example 92-8, (M)-6-Chloro-4-[(2S,5R)-2,5-dimethyl-4-prop-2-enoyl-piperazin-1-yl]-1-(2-isopropyl-4-methyl-3-pyridyl)-7-(2-methylprop-1-enyl)pyrido[2,3-d]pyrimidin-2-one] | 0.985
C=CC(=O)N1C[C@H](C)N(c2nc(=O)n(-c3c(C)ccnc3C(C)C)c3nc(C4=CCOCC4)c(Cl)cc23)C[C@H]1C (atropisomer, axis not shown; (M)) [Example 92-9, (M)-6-Chloro-7-(3,6-dihydro-2H-pyran-4-yl)-4-[(2S,5R)-2,5-dimethyl-4-prop-2-enoyl-piperazin-1-yl]-1-(2-isopropyl-4-methyl-3-pyridyl)pyrido [2,3-d]pyrimidin-2-one] | 8.53
C=CC(=O)N1C[C@H](C)N(c2nc(=O)n(-c3c(C)ccnc3C(C)C)c3nc(-c4cccc5c4NC(=O)C5)c(Cl)cc23)C[C@H]1C (atropisomer, axis not shown; (M)) [Example 92-20, (M)-6-Chloro-4-[(2S,5R)-2,5-dimethyl-4-prop-2-enoyl-piperazin-1-yl]-1-(2-isopropyl-4-methyl-3-pyridyl)-7-(2-oxoindolin-7-yl)pyrido[2,3-d]pyrimidin-2-one] | 0.403
C=CC(=O)N1C[C@H](C)N(c2nc(=O)n(-c3c(C)ccnc3C(C)C)c3[nH]c(=O)c(Cl)cc23)C[C@H]1C (atropisomer, axis not shown; (M)) [Example 92-22, (M)-6-Chloro-4-[(2S,5R)-2,5-dimethyl-4-prop-2-enoyl-piperazin-1-yl]-1-(2-isopropyl-4-methyl-3-pyridyl)-8H-pyrido[2,3-d]pyrimidine-2,7-dione] | 2.94
C=CC(=O)N1C[C@H](C)N(c2nc(=O)n(-c3c(C)ccnc3C(C)C)c3nc(-c4cccc5cn[nH]c45)c(Cl)cc23)C[C@H]1C (atropisomer, axis not shown; (M)) [Example 92-30, (M)-6-Chloro-4-[(2S,5R)-2,5-dimethyl-4-prop-2-enoyl-piperazin-1-yl]-7-(1H-indazol-7-yl)-1-(2-isopropyl-4-methyl-3-pyridyl)pyrido [2,3-d]pyrimidin-2-one] | 0.479
C=CC(=O)N1C[C@H](C)N(c2nc(=O)n(-c3c(C)ccnc3C(C)C)c3nc(-c4ccccc4NC(=O)C(C)(C)C)c(Cl)cc23)C[C@H]1C (atropisomer, axis not shown; (M)) [Example 92-35, (M)-N-[2-[6-Chloro-4-[(2S,5R)-2,5-dimethyl-4-prop-2-enoyl-piperazin-1-yl]-1-(2-isopropyl-4-methyl-3-pyridyl)-2-oxo-pyrido[2,3-d]pyrimidin-7-yl]phenyl]-2,2-dimethyl-propanamide] | 0.758
C=CC(=O)N1C[C@H](C)N(c2nc(=O)n(-c3c(C)ccnc3C(C)C)c3nc(-c4ccsc4)c(Cl)cc23)C[C@H]1C (atropisomer, axis not shown; (M)) [Example 92-50, (M)-6-Chloro-4-[(2S,5R)-2,5-dimethyl-4-prop-2-enoyl-piperazin-1-yl]-1-(2-isopropyl-4-methyl-3-pyridyl)-7-(3-thienyl)pyrido[2,3-d]pyrimidin-2-one] | 1.1
C=CC(=O)N1C[C@H](C)N(c2nc(=O)n(-c3c(C)ccnc3C(C)C)c3nc(-c4cccc(C(F)(F)F)c4)c(Cl)cc23)C[C@H]1C (atropisomer, axis not shown; (M)) [Example 92-56, (M)-6-Chloro-4-[(2S,5R)-2,5-dimethyl-4-prop-2-enoyl-piperazin-1-yl]-1-(2-isopropyl-4-methyl-3-pyridyl)-7-[3-(trifluoromethyl)phenyl]pyrido [2,3-d]pyrimidin-2-one] | 0.591
C=CC(=O)N1C[C@H](C)N(c2nc(=O)n(-c3c(C)ccnc3C(C)C)c3nc(-c4cncnc4C(C)C)c(Cl)cc23)C[C@H]1C (atropisomer, axis not shown; (M)) [Example 92-68, (M)-6-Chloro-4-[(2S,5R)-2,5-dimethyl-4-prop-2-enoyl-piperazin-1-yl]-1-(2-isopropyl-4-methyl-3-pyridyl)-7-(4-isopropylpy-rimidin-5-yl)pyrido[2,3-d]pyrimidin-2-one] | 3.31
C=CC(=O)N1C[C@H](C)N(c2nc(=O)n(-c3c(C)ccnc3C(C)C)c3nc(-c4cccnc4C4CC4)c(Cl)cc23)C[C@H]1C (atropisomer, axis not shown; (M)) [Example 92-69, (M)-6-Chloro-7-(2-cyclopropyl-3-pyridyl)-4-[(2S,5R)-2,5-dimethyl-4-prop-2-enoyl-piperazin-1-yl]-1-(2-isopropyl-4-methyl-3-pyridyl)pyrido [2,3-d]pyrimidin-2-one] | 1.36
C=CC(=O)N1C[C@H](C)N(c2nc(=O)n(-c3c(C)ccnc3C(C)C)c3nc(-c4cc(OC)cc5ccccc45)c(Cl)cc23)C[C@H]1C (atropisomer, axis not shown; (M)) [Example 92-70, (M)-6-Chloro-4-[(2S,5R)-2,5-dimethyl-4-prop-2-enoyl-piperazin-1-yl]-1-(2-isopropyl-4-methyl-3-pyridyl)-7-(3-methoxy-1-naphthyl)pyrido [2,3-d]pyrimidin-2-one] | 0.6
C=CC(=O)N1C[C@H](C)N(c2nc(=O)n(-c3c(C)ccnc3C(C)C)c3nc(-c4nc(C)sc4C)c(Cl)cc23)C[C@H]1C (atropisomer, axis not shown; (M)) [Example 92-71, (M)-6-Chloro-4-[(2S,5R)-2,5-dimethyl-4-prop-2-enoyl-piperazin-1-yl]-7-(2,5-dimethylthiazol-4-yl)-1-(2-isopropyl-4-methyl-3-pyridyl)pyrido [2,3-d]pyrimidin-2-one] | 1.36
C=CC(=O)N1C[C@H](C)N(c2nc(=O)n(-c3c(C)ccnc3C(C)C)c3nc(-c4scnc4C)c(Cl)cc23)C[C@H]1C (atropisomer, axis not shown; (M)) [Example 92-72, (M)-6-Chloro-4-[(2S,5R)-2,5-dimethyl-4-prop-2-enoyl-piperazin-1-yl]-1-(2-isopropyl-4-methyl-3-pyridyl)-7-(4-methylthiazol-5-yl)pyrido[2,3-d]pyrimidin-2-one] | 8.87
C=CC(=O)N1C[C@H](C)N(c2nc(=O)n(-c3c(C)ccnc3C(C)C)c3nc(-c4cc(F)ccc4F)c(F)cc23)C[C@H]1C (atropisomer, axis not shown; (M)) [Example 94-3, (M)-7-(2,5-difluorophenyl)-4-[(2S,5R)-2,5-dimethyl-4-prop-2-enoyl-piperazin-1-yl]-6-fluoro-1-(2~ isopropyl-4-methyl-3-pyridyl)pyrido [2,3-d]pyrimidin-2-one] | 0.684
